Measurements as given in patent publication EP4585587A1, “PROPIONIC ACID DERIVATIVE AND USE THEREOF IN MEDICINE” (priority 2022, dated 2024).
pIC50: −log10 of the molar value. Where a name gives a salt, the structure may show the parent alone. Read-outs that look alike come from different tables or passages of the source.

Experiments:
integrin α4β1 = test: Integrin α4β1-mediated cell adhesion assay (Jurkat cells on VCAM); type: cell-based; details: for pIC50: Jurkat cells, VCAM coated plate, read-out: Jurkat (α4β1)/VCAM-1 IC50; for α4β1/α4β7: selectivity ratio of Jurkat (α4β1)/VCAM-1 IC50 to RPMI-8866 (α4β7)/MadCAM-1 IC50
Method: VCAM was formulated into a final concentration of 0.5 µg/ml with a coating buffer, 50 µl of the solution was transferred to a 96-well plate, and the plate was coated with same at 4°C overnight. The plate was washed with coating buffer three times, then 150 µl of a blocking solution (coating buffer containing 1% BSA) was added, and the plate was blocked at 37°C for 1 h. Jurkat cells were collected, washed twice using DPBS buffer, and then resuspended to 4 × 10^6 cells/ml with an action buffer. 50 µl of the cell suspension was transferred to a 96-well plate so that the cell density reached 2 × 10^5 cells/well. Then 1 µl of the test compound at different concentration or DMSO was added and the plate was incubated at 37°C for 1 h. The plate was washed with coating buffer to remove non-adherent cells. 50 µl of a substrate (4-nitrophenyl-N-acetyl-β-D-glucosaminide) was added and the plate was incubated at 37°C for 2 h. Finally, 90 µl of a termination solution (50 mM glycine and 5 mM EDTA, pH 10.4) was added. The OD value of the plate was read at 405 nm. • Coating buffer: DMEM+ 20 mM HEPES+ 0.4 mM MnCl2 • Action buffer: DMEM+ 20 mM HEPES+ 0.1% BSA+0.4 mM MnCl2 • DMEM: dulbecco's modified eagle medium; • HEPES: 2-[4-(2-hydroxyethyl)piperazin-1-yl]ethanesulfonic acid Table 1 Results of effects of compounds on α4β7- and α4β1-mediated cell adhesion

integrin α4β7 = biological target: T1, integrin α4β7 (Homo sapiens, UniProt P13612+P26010); test: Integrin α4β7 cell adhesion assay (RPMI8866 cells on MAdCAM-1); type: cell-based; details: RPMI8866 cells, MAdCAM-1 coated plate, read-out: RPMI-8866 (α4β7)/MadCAM-1 IC50
T1 sequence (P13612 34-1032): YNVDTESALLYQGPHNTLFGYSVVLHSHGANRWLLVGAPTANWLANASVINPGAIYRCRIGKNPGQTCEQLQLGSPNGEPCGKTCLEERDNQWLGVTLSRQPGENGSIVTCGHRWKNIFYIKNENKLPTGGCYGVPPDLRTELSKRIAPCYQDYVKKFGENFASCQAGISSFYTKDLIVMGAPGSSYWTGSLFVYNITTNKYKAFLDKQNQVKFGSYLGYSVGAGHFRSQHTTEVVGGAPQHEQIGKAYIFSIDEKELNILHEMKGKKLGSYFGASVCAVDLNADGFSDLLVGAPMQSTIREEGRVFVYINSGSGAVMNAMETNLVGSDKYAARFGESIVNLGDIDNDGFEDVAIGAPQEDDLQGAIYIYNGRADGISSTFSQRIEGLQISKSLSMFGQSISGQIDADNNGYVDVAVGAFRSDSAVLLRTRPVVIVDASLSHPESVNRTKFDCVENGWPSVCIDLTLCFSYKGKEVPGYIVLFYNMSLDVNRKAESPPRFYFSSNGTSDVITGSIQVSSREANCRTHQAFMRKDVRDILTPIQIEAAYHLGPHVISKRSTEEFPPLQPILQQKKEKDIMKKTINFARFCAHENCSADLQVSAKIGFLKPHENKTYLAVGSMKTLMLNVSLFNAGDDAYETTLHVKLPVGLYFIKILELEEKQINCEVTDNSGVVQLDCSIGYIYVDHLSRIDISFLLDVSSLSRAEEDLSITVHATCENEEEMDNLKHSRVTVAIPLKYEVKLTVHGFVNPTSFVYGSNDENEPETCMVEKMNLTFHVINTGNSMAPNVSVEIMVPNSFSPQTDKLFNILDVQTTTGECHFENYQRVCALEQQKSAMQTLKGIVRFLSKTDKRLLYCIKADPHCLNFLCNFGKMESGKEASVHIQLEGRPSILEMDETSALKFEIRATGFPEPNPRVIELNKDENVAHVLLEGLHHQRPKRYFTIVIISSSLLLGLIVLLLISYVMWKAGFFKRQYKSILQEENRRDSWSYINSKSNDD
T1 sequence (P26010 20-798): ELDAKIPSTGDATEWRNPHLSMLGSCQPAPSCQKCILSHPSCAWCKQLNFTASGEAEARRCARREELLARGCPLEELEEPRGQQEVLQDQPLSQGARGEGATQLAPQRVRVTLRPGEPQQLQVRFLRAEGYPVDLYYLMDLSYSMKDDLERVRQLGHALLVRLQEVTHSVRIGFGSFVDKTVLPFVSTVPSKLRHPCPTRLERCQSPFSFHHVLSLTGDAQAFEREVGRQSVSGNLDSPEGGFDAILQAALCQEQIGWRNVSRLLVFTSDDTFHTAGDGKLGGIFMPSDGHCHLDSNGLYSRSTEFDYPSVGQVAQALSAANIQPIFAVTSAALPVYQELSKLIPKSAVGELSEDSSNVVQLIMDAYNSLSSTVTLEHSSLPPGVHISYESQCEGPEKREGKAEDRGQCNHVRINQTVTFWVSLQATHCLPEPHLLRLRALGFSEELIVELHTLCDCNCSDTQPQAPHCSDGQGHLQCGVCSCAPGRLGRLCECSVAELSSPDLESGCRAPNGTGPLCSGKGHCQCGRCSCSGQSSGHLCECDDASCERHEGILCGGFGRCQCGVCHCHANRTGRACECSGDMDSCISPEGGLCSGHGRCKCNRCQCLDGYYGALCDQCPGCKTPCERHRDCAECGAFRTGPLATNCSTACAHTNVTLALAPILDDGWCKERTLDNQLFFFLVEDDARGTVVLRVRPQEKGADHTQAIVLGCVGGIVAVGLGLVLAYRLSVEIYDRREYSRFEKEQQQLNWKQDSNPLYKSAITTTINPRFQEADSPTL
Method: MAdCAM-1 was formulated with TBS buffer to a final concentration of 2 µg/ml, 50 µl of the solution was transferred to a 96-well plate, and the plate was coated with same at 4°C overnight. The plate was washed with TBS buffer three times, then 150 µl of a blocking solution (TBS buffer containing 1% BSA) was added, and the plate was blocked at 37°C for 1 h. […] 50 µl of the cell suspension was transferred to a 96-well plate so that the cell density reached 2×10^5 cells/well. Then 1 µl of the compound at different concentrations or DMSO was added and the plate was incubated at 37°C for 1 h or 2 h. The plate was washed with TBS buffer to remove non-adherent cells. 50 µl of a substrate (4-nitrophenyl-N-acetyl-β-D-glucosaminide) was added and the plate was incubated at 37°C for 2 h. […] The IC50 value was calculated using GraphPad Prism 6 software.

[1] = Test of stability in liver microsomes; type: in vitro ADME, mouse; details: Mice liver microsomes, 1 µM, 37°C, NADPH
[2] = Test of stability in liver microsomes; type: in vitro ADME; details: Rat liver microsomes, 1 µM, 37°C, NADPH
[3] = Test of stability in liver microsomes; type: in vitro ADME; details: Monkey liver microsomes, 1 µM, 37°C, NADPH
[4] = Pharmacokinetic test in mice; type: in vivo; details: male BALB/c mice, plasma
Method: Experimental animals: male BALB/c mice, 20-25 g, 6 mice/compound. purchased from Chengdu Ddossy Experimental Animals Co., Ltd.
Experimental design: on the day of the test, 6 BALB/c mice were randomly grouped according to their body weights. The animals were fasted with water available for 12 to 14 h one day before the administration and were fed 4 h after the administration. Table 2. Administration information
Before and after the administration, 0.06 mL of blood was taken from the orbit of the animals under isoflurane anesthesia and placed in an EDTAK2 centrifuge tube. The blood was centrifuged at 5000 rpm and 4°C for 10 min to collect plasma. The blood collection time points for the intravenous group and intragastric group were both 0 min, 5 min, 15 min, 30 min, 1 h, 2 h, 4 h, 6 h, 8 h, and 24 h. Before analysis and detection, all samples were stored at -80°C, and the samples were quantitatively analyzed by LC-MS/MS.

| pIC50 (integrin α4β1) | pIC50 (integrin α4β7; reported as class symbol) | pIC50 (integrin α4β7; numeric value or bound) | SMILES | α4β1/α4β7 (integrin α4β1) | Test compound after 1h incubation Remaining% (T=60min) [1] | Test compound after 1h incubation Remaining% (T=60min) [2] | Test compound after 1h incubation Remaining% (T=60min) [3] | CL ([4]; IV: 1 mg/kg) | AUC ([4]; PO: 10 mg/kg) |
| --- | --- | --- | --- | --- | --- | --- | --- | --- | --- |
| < 6.30 | > 8.00 | – | CC#Cc1cc(-c2c(C)cccc2C)c(F)c(C(CC(=O)O)NC(=O)C(CC(C)C)n2cc(CC3CN(CC4CC4)C3)c(C(F)(F)F)cc2=O)c1F (single isomer, unassigned) [Trifluoroacetate salt of compound 19-2] | 323 | – | – | – | – | – |
| – | – | – | Cc1cc(-c2c(C)cc(F)cc2C)cc([C@H](CC(=O)O)NC(=O)[C@H](CC(C)C)n2cc(CCN(C)C)c(C(F)(F)F)cc2=O)c1F [Control compound A] | 50.4 | 42.6% | 31.9% | 1.8% | 56.0 mL/kg/min | 830 ng·h/mL |
| < 6.70 | – | > 9.00 | CC#Cc1cc(-c2c(C)cccc2C)c(F)c(C(CC(=O)O)NC(=O)[C@H](CC(C)C)n2cc(CCC3CCCN3C)c(C(F)(F)F)cc2=O)c1F (stereo partly drawn) [Trifluoroacetate salt of compound 29-2] | 292 | – | – | – | – | – |
